Conditions in one data set: not given
Turning to `COc1cc2c(cc1OC)[C@@]13CCN4CC5=CCO[C@H]6CC(=O)N2[C@H]1[C@H]6[C@H]5C[C@H]43`, the logP (in general, a log measure of how a compound divides between an organic and an aqueous phase) turned out to be 0.98.
As to `C(=Cc1ccccn1)c1ccccn1`, the logP was 2.11.
Same read-out and setting: for `NC(=S)NN=Cc1ccccc1` the value was 1.86.
The same measure, in the same setting: for `CCN(CC)CCNC(=O)c1ccccc1OC` the value was 1.98; for `Cn1c(N)nc2ccccc21`, 0.95; for `CC(C)(C)N(CC(O)COc1ccccc1)CC(O)COc1ccccc1` (stereo not given), 3.99.
On to `CCCN(CCC)c1c([N+](=O)[O-])cc(C(F)(F)F)cc1[N+](=O)[O-]`, for which the logP worked out at 5.34.
The same measure, in the same setting: for `CS(=O)(=O)Oc1ccccc1` the value was 1.25; for `CC(=O)c1cc2ccccc2nn1`, 1.44; for `Cc1cccc(OCC(=O)NNC(C)C)c1`, 1.77.
In turn, `CCCCCCC(C)(C)c1ccc(C2CC(O)CCC2CCCCO)c(O)c1` (stereo not given) yielded a logP of 6.68.
The same measure, in the same setting: for `CC(C)Br` the value was 2.14; for `O=C(c1ccccc1)c1cccnc1`, 1.88; for `CCOC(=O)NC1=C(N2CC2)C(=O)C(NC(=O)OCC)=C(N2CC2)C1=O`, -0.02.
`CNC(=O)Oc1ccc(C#N)cc1` had a logP of 0.95.
In turn, `CNC(=O)Oc1ccccc1C#N` yielded a logP of 0.86.
With `CC(C)(O)C(Cl)(Cl)Cl`, the logP was determined as 2.03.
With `CCS(=O)(=O)CC`, the logP was -0.59.
As to `S=C=Nc1ccc(Br)cc1`, the logP was determined as 4.03.
On the same count and under the same terms, for `CCCOC/C(=N\c1ccc(Cl)cc1C(F)(F)F)n1ccnc1` the value was 1.4.
`C1COCO1` displayed a logP of -0.37.
The compound `C=CCCCCC` had a logP of 3.99.
Regarding `C=C(C)C(=O)OC(C)(C)C`, the logP was determined as 2.54.
`CN(c1ccccc1)c1ccccc1` returned a logP of 3.9.
`CN(C)CCOC(=O)c1ccc(Cl)cc1` returned a logP of 2.63.
The same measure, in the same setting: for `CCN(CC)N=Nc1ccc(S(C)(=O)=O)cc1` the value was 2.6.
Regarding `CC(=O)Nc1cccc(N(C)C)c1`, the logP is 1.29.
`Clc1ccc2ccccc2c1Cl` had a logP of 4.42.
As to `CCCC[Si](C)(C)C`, the logP worked out at 4.2.
With `CN(C)C(N(C)C)=S(I)c1cccc(C#N)c1` (stereo not given), the logP was -1.1.
With `BrCCBr`, the log partition coefficient (logP) is 1.96.
Take `Cc1cc2ccccc2n1C`: the logP was determined as 2.82.
As to `O=C(O)c1ccccc1Cl`, the logP worked out at 2.05.
Still for that read-out and setting: for `Cc1cccc(C)c1O` the value was 2.36.
Same read-out and setting: for `c1ccc2nnccc2c1` the value was 0.93; for `CC1CCCC(C)N1N=O` (stereo not given), 1.36.
As to `NC(=O)Nc1cccc2cccnc12`, the logP was 1.62.
Take `Nc1cnc2ccccc2c1`: the logP was determined as 1.63.
In the case of `CC(C)Nc1nc(NC(C)(C)C)nc(SC(F)F)n1`, the logP worked out at 4.7.
Take `Nc1nccs1`: the logP was 0.38.
`C[C@@H](O)c1ccccc1` registered a logP of 1.42.
The compound `CCN(CC)CC(F)(F)F` had a logP of 1.88.
Turning to `CN(C)C(=O)Oc1ccccc1[N+](=O)[O-]`, the logP is 1.35.
Take `c1ccc(N2CCOCC2)cc1`: the logP was determined as 1.36.
`Fc1ccccc1CCl` gave a logP of 2.67.
Same read-out and setting: for `CC(=O)Nc1ccc(O)c(C(C)(C)C)c1` the value was 2.36.
In turn, `CCN(CCO)c1ccccc1` yielded a logP of 2.1.
Regarding `CCOc1ccc(O)cc1`, the logP amounted to 1.81.
The compound `CCCCOC(=O)n1cnc(CSCCNC(=NC#N)NC)c1C` gave a logP of 2.15.
Compound `C#CC` yielded a logP of 0.94.
`COCOC` registered a lipophilicity (logP) of 0.
Same read-out and setting: for `NC(=O)Cc1cccnc1` the value was -0.71; for `c1cnccn1`, -0.26; for `COc1ccccc1NCC(C)=O`, 1.49.
`Ic1nc(I)c(I)[nH]1` returned a log partition coefficient (logP) of 2.78.
As to `O=S1(=O)C=Cc2ccccc21`, the logP is 0.88.
In turn, `COc1cc(S(C)=O)ccc1-c1nc2ncncc2[nH]1` (stereo not given) showed a logP of 0.53.
Take `Oc1ccccc1C(F)(F)F`: the logP was 2.8.
Turning to `N#C/C=C/C#N`, the logP was -0.25.
Same read-out and setting: for `Nc1ncnc2nc(-c3ccccc3)[nH]c12` the value was 2.31; for `O=C(O)c1ccc(O)c(O)c1`, 0.86; for `CCc1ccc(N2C(=O)CCC2=O)cc1`, 1.1.
Compound `O=[N+]([O-])C=Cc1ccc(Cl)cc1` returned a logP of 2.44.
`CCCCCC[N+](=O)[O-]` showed a logP of 2.7.
`COc1cccc(C(=O)O)c1O` returned a logP of 1.94.
`O=Cc1ccoc1` showed a logP of 0.51.
`CN(C)c1ccnnc1` had a logP of -0.09.
The compound `O=C(c1ccccc1)c1ccncc1` displayed a logP of 1.98.
Compound `O=[N+]([O-])c1cc(Cl)ccc1Cl` showed a logP of 3.09.
As for `Clc1cc2ccccc2cc1Cl`, the logP amounted to 4.42.
Compound `CC(C)CC(=O)NN` returned a logP of -0.31.
Still for that read-out and setting: for `Nc1ccc(C[C@H](N)C(=O)O)cc1` the value was -2.2; for `N#Cc1cccc([N+](=O)[O-])c1`, 1.17; for `CCOC(=O)C(Cl)(Cl)Cl`, 2.39.
With `O=c1[nH]c(=O)c2[nH]cnc2[nH]1`, the logP is -0.73.
`CC(C)c1ccccc1OC(=O)c1ccc(N)cc1O` showed a logP of 4.28.
For the compound `COc1cnc2ccccc2n1`, the logP was 2.31.
In turn, `C=CCN(C(C)=O)C(C)C` came in with a logP of 1.14.
Regarding `NC(=O)c1cccc(F)c1`, the lipophilicity (logP) was found to be 0.91.
Still for that read-out and setting: for `OC(CF)CF` the value was -0.36; for `CCCCOc1cccc(OC(=O)NC)c1`, 2.96; for `CON(C)C(=O)Nc1ccc(OCCc2ccc(C)cc2)cc1`, 3.81.
The compound `Cc1cn(C2OC(CO)C(O)C2O)c(=O)nc1N` (stereo not given) registered a logP of -2.01.
Same read-out and setting: for `CC1(C)OC(=O)c2ccccc21` the value was 1.73; for `CCc1ccc(O)cc1`, 2.58; for `O=C1CN=C(c2ccccc2)c2cc(Cl)ccc2N1CC1CC1`, 3.73.
Turning to `CC(C)I`, the logP amounted to 2.89.
In the case of `CC(=O)c1cccc(C(C)=O)c1`, the logP was found to be 1.43.
On the same count and under the same terms, for `O=C(CN1CCCCC1)Nc1ccc(I)cc1` the value was 3.9; for `Brc1cccs1`, 2.75.
Compound `C=C` showed a lipophilicity (logP) of 1.13.
`CCCCC(=O)O[C@]1(C(=O)CO)[C@@H](C)C[C@H]2[C@@H]3CCC4=CC(=O)C=C[C@]4(C)[C@@]3(F)[C@@H](O)C[C@@]21C` yielded a logP of 3.6.
`O=C(CN1CCCCC1)Nc1cccc(Br)c1` showed a logP of 3.62.
With `Cc1ccccn1`, the logP is 1.11.
Take `C[C@]12CCC(=O)C=C1CC[C@@H]1[C@@H]2[C@@H](O)C[C@@]2(C)[C@H]1CC[C@]2(O)C(=O)CO`: the logP is 1.61.
The compound `COc1ccc(-c2nc3cnccc3n2C)c(OC)c1` showed a logP of 2.66.
On the same count and under the same terms, for `FS(F)(F)(F)(F)c1ccccc1` the value was 3.36; for `CCCCOCCOCCO`, 0.56; for `O=S(=O)(O)c1ccc(O)c2ccccc12`, -0.44.
As to `CCc1cc([N+](=O)[O-])cc([N+](=O)[O-])c1O`, the log partition coefficient (logP) came out at 2.67.
`O=C(NP(=O)(N1CC1)N1CC1)c1ccc(I)cc1` had a logP of 2.25.
For the compound `CC(=O)N[C@@H](Cc1ccccc1)C(=O)NCC(=O)N[C@@H](CC(C)C)C(N)=O`, the logP was determined as 0.6.
In turn, `CCCCCN` displayed a logP of 1.49.
Still for that read-out and setting: for `OCCCCCc1ccccn1` the value was 1.28; for `NCCCc1cccnc1`, 0.44.
Turning to `CCN(CC)CCOC(=O)c1ccc(N)cc1Cl`, the logP is 2.86.
In turn, `CN(C)C(=O)Nc1cccc(CCc2ccccc2)c1` came in with a logP of 3.21.
With `Cc1nc2ccccc2[nH]1`, the logP was found to be 1.43.
In turn, `CN(C)N=Nc1ccc(C(N)=O)cc1` had a logP of 1.2.
On to `CNC(=O)OCc1c2c(n3c1C(OC(C)=O)CC3)C(=O)C(Cl)=C(OC)C2=O` (stereo not given), for which the logP was 2.08.
Consider `COC(=O)c1ccc(C(=O)OC)cc1`, for which the logP amounted to 2.25.
Compound `Cc1cc2ccccc2cn1` had a lipophilicity (logP) of 2.68.
Compound `O=c1[nH]ncc2ccccc12` came in with a logP of 0.75.
`COP(=S)(OC)Oc1ccc(Cl)cc1C#N` showed a logP of 3.41.
Take `CCCCCC(=O)Nc1ccccc1`: the logP is 3.28.
Compound `c1ccc(OCCOc2ccccc2)cc1` showed a logP of 3.81.
As to `C/N=C(\N)NC#N`, the logP is -0.77.
In the case of `C=CCC1(C(C)CC)C(=O)NC(=O)NC1=O` (stereo not given), the logP was 1.47.
In the case of `Cn1ccc(=O)[nH]c1=O`, the logP is -1.2.
Same read-out and setting: for `Nc1ccc(S(=O)(=O)Nc2ccc(S(N)(=O)=O)cc2)cc1` the value was 0.35; for `CNC(=O)OC`, -0.06.
On the same count and under the same terms, for `Oc1ccc(Cl)c(Cl)c1` the value was 3.33.
`CCCCCCBr` yielded a logP of 3.8.
`CC(=O)Nc1cccc2ncccc12` came in with a logP of 0.71.
Same read-out and setting: for `c1cscn1` the value was 0.44; for `CSc1nc(NC(C)C)nc(NC(C)C)n1`, 3.51.
As to `O=C1CCC(=O)N1c1cccc(I)c1`, the logP stood at 1.39.
Turning to `O=[N+]([O-])c1cc[n+]([O-])c2ccc(Cl)cc12`, the lipophilicity (logP) turned out to be 1.41.
`CCOCCCl`: the logP was determined as 0.98.
On to `Cc1ccc(O)c(C(=O)O)c1`, for which the logP is 2.78.
Consider `CCCCOC(N)=O`, for which the log partition coefficient (logP) is 0.85.
As to `O=C(C(=O)c1ccco1)c1ccco1`, the logP was 1.24.
Consider `NCc1ccco1`, for which the logP came out at 0.37.
Same read-out and setting: for `CCc1nnc(NS(=O)(=O)c2ccc(N)cc2)s1` the value was 1.01; for `c1ccc2c(c1)Nc1ccccc1S2`, 4.15.
On to `NS(=O)(=O)c1ccc(C(=O)O)cc1`, for which the logP came to 0.5.
`Nc1nc2cc(Cl)ccc2[nH]1` registered a logP of 1.88.
Same read-out and setting: for `CCCCOC(=O)c1ccc(N)cc1` the value was 2.87.
The compound `CC(C)Cc1cc(C(=O)NN)ccn1` displayed a logP of 1.02.
Consider `COCC(F)Cn1ccnc1[N+](=O)[O-]` (stereo not given), for which the logP came out at 0.18.
The same measure, in the same setting: for `CC(C)Oc1ccc([N+](=O)[O-])cc1` the value was 2.8; for `NNc1ccccc1`, 1.25; for `CCCN(CCC)C(=O)SCC`, 3.21.
On to `CNC(=NC#N)NCCSCc1ncccc1OC`, for which the logP was found to be 0.97.

The data set is the same for the next values; noted with them: pH 7.4.
In the case of `O=C(O)CCCc1ccc(N(CCCl)CCCl)cc1`, the logD (in general, lipophilicity at a set pH, counting ionised and neutral species) was determined as 1.7.
